Source: the supplement of paper PMC10307832

How the values were obtained:
Test in all cases: relative viability (nuclei count vs DMSO), 5 days (fraction); higher = more cells survive
Linsitinib + Palbociclib = compound: C[C@]1(O)C[C@@H](c2nc(-c3ccc4ccc(-c5ccccc5)nc4c3)c3c(N)nccn32)C1 [Linsitinib] + CC(=O)c1c(C)c2cnc(Nc3ccc(N4CCNCC4)cn3)nc2n(C2CCCC2)c1=O [Palbociclib] (partner 0.5 µM)
How it was run: (§1)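 Each reported value is a median over duplicate plates. It expresses relative viability: treated-well nuclei count divided by vehicle-well nuclei count. Lung cancer cell lines in 1536-well plates were dosed by pin tool a day after seeding, alone with one drug or with a fixed anchor-drug dose plus five library-drug doses (not always all listed) in √10 steps, and nuclei were counted after 5 days.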

Linsitinib + Pictilisib = compound: C[C@]1(O)C[C@@H](c2nc(-c3ccc4ccc(-c5ccccc5)nc4c3)c3c(N)nccn32)C1 [Linsitinib] + CS(=O)(=O)N1CCN(Cc2cc3nc(-c4cccc5[nH]ncc45)nc(N4CCOCC4)c3s2)CC1 [Pictilisib] (partner 1 µM)
How it was run: as §1

Ispinesib + Tozasertib = compound: Cc1ccc(C(=O)N(CCCN)[C@@H](c2nc3cc(Cl)ccc3c(=O)n2Cc2ccccc2)C(C)C)cc1 [Ispinesib] + Cc1cc(Nc2cc(N3CCN(C)CC3)nc(Sc3ccc(NC(=O)C4CC4)cc3)n2)n[nH]1 [Tozasertib] (partner 0.1 µM)
How it was run: as §1

Linsitinib + AZD7762 = compound: C[C@]1(O)C[C@@H](c2nc(-c3ccc4ccc(-c5ccccc5)nc4c3)c3c(N)nccn32)C1 [Linsitinib] + NC(=O)Nc1cc(-c2cccc(F)c2)sc1C(=O)N[C@H]1CCCNC1 [AZD7762] (partner 0.2 µM)
How it was run: as §1

Row | Cell Line | relative viability (Linsitinib + Palbociclib; first compound 0.01 µM) | relative viability (Linsitinib + Palbociclib; first compound 0.03162 µM) | relative viability (Linsitinib + Palbociclib; first compound 0.1 µM) | relative viability (Linsitinib + Palbociclib; first compound 0.3162 µM) | relative viability (Linsitinib + Palbociclib; first compound 1 µM) | relative viability (Linsitinib + Pictilisib; first compound 0.03162 µM) | relative viability (Linsitinib + Pictilisib; first compound 0.1 µM) | relative viability (Linsitinib + Pictilisib; first compound 0.3162 µM) | relative viability (Linsitinib + Pictilisib; first compound 1 µM) | relative viability (Ispinesib + Tozasertib; first compound 0.001 µM) | relative viability (Ispinesib + Tozasertib; first compound 0.003162 µM) | relative viability (Ispinesib + Tozasertib; first compound 0.01 µM) | relative viability (Ispinesib + Tozasertib; first compound 0.03162 µM) | relative viability (Ispinesib + Tozasertib; first compound 0.1 µM) | relative viability (Linsitinib + Pictilisib; first compound 0.01 µM) | relative viability (Linsitinib + AZD7762; first compound 0.01 µM) | relative viability (Linsitinib + AZD7762; first compound 0.03162 µM) | relative viability (Linsitinib + AZD7762; first compound 0.1 µM) | relative viability (Linsitinib + AZD7762; first compound 0.3162 µM) | relative viability (Linsitinib + AZD7762; first compound 1 µM)
1 | NCI-H661 | 0.41 | 0.433 | 0.381 | 0.379 | 0.412 | 0.375 | 0.329 | 0.464 | 0.332 | 0.355 | 0.396 | 0.384 | 0.379 | 0.369 | – | – | – | – | – | –
2 | CAL-12T | 0.429 | 0.388 | 0.412 | 0.321 | 0.424 | 0.368 | 0.585 | 0.379 | 0.336 | 0.244 | 0.361 | 0.296 | 0.213 | 0.222 | 0.44 | 0.67 | 0.595 | 0.734 | 0.577 | 0.743
3 | HARA | 0.276 | 0.274 | 0.223 | 0.203 | 0.268 | 0.373 | 0.248 | 0.369 | 0.166 | 0.151 | 0.115 | 0.332 | 0.0895 | 0.107 | 0.399 | 0.355 | 0.237 | 0.344 | – | 0.179
4 | NCI-H596 | – | – | – | – | – | 0.393 | 0.382 | 0.343 | 0.317 | 0.956 | 0.86 | 0.916 | 0.945 | 0.432 | 0.248 | 1.19 | 1.06 | 1 | 1.14 | 0.92
5 | LU99A | 0.392 | 0.432 | 0.434 | – | 0.36 | 0.347 | 0.315 | 0.204 | 0.242 | 0.261 | 0.282 | 0.29 | 0.262 | 0.273 | 0.291 | 0.285 | 0.435 | 0.371 | – | 0.196
6 | LC-2-ad | 0.412 | 0.392 | 0.483 | 0.433 | 0.423 | 0.369 | 0.409 | 0.396 | 0.269 | 0.42 | 0.52 | 0.384 | 0.322 | 0.241 | 0.423 | 0.862 | 0.816 | 0.814 | 0.805 | 0.54
7 | NCI-H1650 | 0.399 | 0.299 | 0.305 | 0.246 | 0.253 | 0.485 | 0.556 | 0.138 | 0.356 | 0.382 | 0.364 | 0.397 | 0.139 | 0.257 | 0.529 | – | – | – | – | –
8 | NCI-H1915 | 0.514 | 0.595 | 0.473 | 0.489 | 0.307 | 0.943 | 0.97 | 0.726 | 0.522 | 0.444 | 0.528 | 0.498 | 0.462 | 0.315 | 0.996 | 0.661 | 0.641 | 0.785 | 0.748 | 0.538
9 | ABC-1 | 0.793 | 0.537 | 0.627 | 0.428 | 0.425 | 0.572 | 0.696 | 0.434 | 0.498 | 0.197 | 0.174 | 0.21 | 0.182 | 0.184 | 0.883 | – | – | 0.765 | 0.861 | 0.602
10 | HCC-44 | 0.962 | 0.928 | 0.879 | 0.785 | 0.825 | 0.634 | 0.66 | 0.317 | 0.311 | 0.928 | 1.05 | 1.09 | 0.679 | 0.209 | 0.579 | 1.01 | 0.962 | 0.995 | 0.855 | 0.925
11 | HCC-78 | 0.45 | 0.539 | 0.458 | 0.525 | 0.501 | 0.225 | 0.162 | 0.203 | 0.204 | 0.444 | 0.426 | 0.521 | 0.449 | 0.407 | 0.205 | – | 0.56 | 0.415 | 0.666 | 0.472
12 | LXF-289 | 0.565 | 0.62 | 0.607 | 0.493 | 0.614 | 0.875 | 0.738 | 0.539 | 0.592 | 0.235 | 0.171 | 0.175 | 0.151 | 0.152 | 0.76 | 1.04 | 1.04 | 1.13 | 0.731 | 1.04
13 | 201T | 0.357 | 0.371 | 0.374 | 0.364 | 0.374 | 0.703 | 0.688 | 0.616 | 0.534 | 0.919 | 0.979 | 0.998 | 0.999 | 0.587 | 0.706 | 0.554 | 0.59 | 0.675 | 0.509 | 0.612
14 | NCI-H1734 | 0.338 | 0.394 | 0.334 | 0.313 | 0.31 | 0.456 | 0.392 | 0.421 | 0.295 | 0.258 | 0.121 | 0.25 | 0.254 | 0.218 | 0.474 | 0.61 | 0.534 | 0.579 | 0.794 | 0.363
15 | NCI-H1623 | – | – | – | – | – | – | – | – | – | 0.404 | 0.719 | 0.473 | 0.394 | 0.324 | – | – | – | – | – | –
16 | NCI-H2126 | 0.345 | 0.365 | 0.347 | 0.352 | 0.334 | 0.486 | 0.459 | 0.389 | 0.359 | 0.813 | 0.913 | 0.944 | 0.644 | 0.449 | 0.489 | 0.972 | 0.997 | 1.05 | 0.871 | 0.887
17 | LOU-NH91 | 0.513 | 0.539 | 0.484 | 0.529 | 0.549 | 0.515 | 0.503 | 0.523 | 0.457 | 0.677 | 0.638 | 0.76 | 0.584 | 0.347 | 0.49 | 0.763 | 0.701 | 0.742 | 0.693 | 0.58
18 | NCI-H1792 | – | 0.712 | 0.527 | 0.599 | 0.375 | 0.279 | 0.192 | 0.269 | 0.179 | – | – | – | – | – | 0.314 | 0.74 | 0.684 | 0.539 | 0.326 | 0.277
